Patent publication US20230398125A1, “TREATING HEPATITIS” (Albireo AB, priority 2022, published 2023)
Like-named read-outs stand apart in the source and are kept apart here.

Experiments:
[1] = Body weight, mortality and observations in HBV-infected PXB mice; format: in vivo; details: 10 and 30 mg/kg
[2] = system: Primary Human Hepatocytes; test: XTT cell toxicity in primary human hepatocytes; format: cell-based
Protocol: (§1) Multiplicity of Infection (MOI) is defined as the number of HBV genome equivalents, as determined by the qPCR quantitation, added per cell in the respective growth format. The overnight media was removed from the cells and replaced with 190 μL of new, serum-free HI media/4% PEG8000 and 10 μL of the diluted virus stock (HepG2 AD38 genotype D) for a MOI of 500. Medium alone was added to the cells containing compound for the parallel cytotoxicity evaluation. After 18 hours of virus infection, the cells were gently washed five times with DPBS, followed by a new addition of 200 μL HI media containing compounds on day 1, day 4 and day 7 post-infection. In one set of experiments (Study #01), the effect of giving compound 18 h prior to infection, versus 18 h post-infection was studied. The supernatant removed from the cytotoxicity plates at each medium change was stored at −20° C. for shipment to the client. The supernatant was collected at 10 days post infection and stored at −20° C. for total extracellular HBV DNA copy number to be quantitatively determined by qPCR. Cell viability was measured by XTT tetrazolium dye at day 10 for the cytotoxicity plates.
(§2) Following incubation at 37° C. in a 5% CO2 incubator for ten days, the test plates were stained with the tetrazolium dye XTT (2,3-bis(2-methoxy-4-nitro-5-sulfophenyl}-5-[(phenylamino)carbonyl]-2H-tetrazolium hydroxide). XTT-tetrazolium was metabolized by the mitochondrial enzymes of metabolically active cells to a soluble formazan product. XTT solution was prepared daily as a stock of 1 mg/mL in RPMI1640. Phenazine methosulfate (PMS) solution was prepared at 0.15 mg/mL in PBS and stored in the dark at −20° C.
(§3) XTT/PMS stock was prepared immediately before use by adding 40 μL of PMS per mL of XTT solution. Fifty microliters of XTT/PMS were added to each well of the plate and the plate was re-incubated for 4 hours at 37° C. Plates were sealed with adhesive plate sealers and shaken gently or inverted several times to mix the soluble formazan product and the plate was read spectrophotometrically at 450/650 nm with a Molecular Devices Vmax plate reader.
(§4) Each concentration of inhibitor and controls were analyzed in triplicate for HBV DNA copies and for cellular toxicity, respectively. From control wells without inhibitor, the mean of these three replicates was calculated and the HBV DNA mean was set to 100% viral control and the XTT mean was set to 100% cell viability. The effect of compound was then expressed as % of viral control and % cell viability, respectively.

[3] = XTT cell toxicity in primary human hepatocytes; format: cell-based; details: human, primary human hepatocytes, read-out: TC50
Protocol: as §1, §2, §3, §4

Human NTCP = molecular target: T1, Human NTCP (Homo sapiens, UniProt Q14973); test: [3H]taurocholate uptake in hNTCP-transfected CHO cells, apparent Ki and type of inhibition; format: cell-based
T1 construct: expressed in transfected cells; peptide purchased from Pharmaron
T1 sequence (Q14973 1-349): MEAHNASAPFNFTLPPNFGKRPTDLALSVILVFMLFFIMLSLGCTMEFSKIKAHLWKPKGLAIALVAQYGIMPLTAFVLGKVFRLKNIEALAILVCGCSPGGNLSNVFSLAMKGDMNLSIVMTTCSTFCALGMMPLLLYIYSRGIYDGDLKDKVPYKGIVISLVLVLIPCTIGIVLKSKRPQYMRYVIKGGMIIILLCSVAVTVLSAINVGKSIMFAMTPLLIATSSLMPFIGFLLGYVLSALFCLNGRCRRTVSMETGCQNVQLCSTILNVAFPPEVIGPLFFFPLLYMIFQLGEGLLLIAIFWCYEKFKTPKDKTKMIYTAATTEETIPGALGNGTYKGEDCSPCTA
Protocol: Stably hNTCP-transfected CHO cells were seeded onto 24 well plates. After overnight incubation, CHO cells were treated with 10 mM sodium butyrate to induce NTCP transporter expression. Twenty-four hours later, media was aspirated, cells were washed with warm Hanks balanced salt solution (HBSS) containing sodium (+Na). Cells were incubated with increasing doses of Compound 1 (for example: 0, 10 nM, 100 nM, 1 μM, 10 μM), in the presence of tracer doses of 5 μm, 10 μM, or 25 μM [^3H]taurocholate at 37° C. for <10 minutes. The cells were processed for radioactivity. The apparent Ki and kinetic types of inhibition (competitive, uncompetitive, non-competitive, mixed) were determined by complementary Dixon/Cornish-Bowden plot analysis and Lineweaver-Burk plot analysis.

HBV genotype C = test: Serum HBsAg in HBV-infected PXB mice; format: in vivo, hepatitis B virus; details: 10 mg/kg and 30 mg/kg, Day 7
Protocol: Target volume of blood was collected from all surviving animals under isoflurane anesthesia via the retro-orbital plexus/sinus using Intramedic™ Polyethylene Tubing at each time point. Two microliters (2 μL) from the collected blood were used for human albumin measurements. The remaining blood was centrifuged to separate serum to be used for analyzing the indicated biomarkers. Blood samples were collected according to Table 8.
The individual blood samples of the animals were left at room temperature for at least 5 minutes to coagulate and then centrifuged at 13200×g, 4° C. for 3 minutes to obtain serum. The serum was divided into separate labeled microtubes and stored at −80° C. until analysis.
Serum HBsAg concentration was determined by SRL, Inc. (Tokyo, Japan) based on a Chemiluminescent Enzyme Immuno Assay (CLEIA) developed by Fujirebio ([…] HBsAg-HQ, […]® Prestoll). The dilution factor was 30 and 10, and the measurement range of this assay was between 0.005 and 150 IU/mL. For the 30-fold diluted samples, the measurement range was adjusted to be between 0.15 and 4500 IU/mL. And for the 10-fold diluted samples, the measurement range was adjusted to be between 0.05 and 1500 IU/mL. The lowest quantification limit of this assay was 0.15 IU/mL serum.

Compound: CCCCC1CN(c2ccccc2)c2cc(SC)c(O/C=C(\F)C(=O)O)cc2S(=O)(=O)N1C (stereo not drawn) [Compound 1, (Z)-3-((3-butyl-2-methyl-7-(methylthio)-1,1-dioxido-5-phenyl-2,3,4,5-tetrahydro-1,2,5-benzothiadiazepin-8-yl)oxy)-2-fluoroacrylic acid]
- observations related to treatment [1]: No noteworthy observations
- TC50 ([2]; Study #01, 18 h post-infection section): >1000 nM
- effect on cell viability ([2]; any concentration tested (up to 100 μmol/L)): did not affect cell viability
- CC50 at 10 days ([3]; Study #01, XTT, PHH): > 1000 nM
- CC50 at 10 days ([3]; Study #02): > 200 nM
- CC50 at 10 days ([3]; Study #03): > 50 nM
- kinetic type of inhibition of transporter activity (Human NTCP; Dixon/Cornish-Bowden and Lineweaver-Burk analysis, NTCP and ASBT): competitive inhibitor
- Ki (Human NTCP; [3H]taurocholate, CHO cells, read-out: inhibitory constant (Ki) for human NTCP): 15 nM
- serum HBsAg compared to controls (HBV genotype C): lower
